Assay results as given in US6187906A, “Methods to improve neural outcome” (Aukland Uniservices Limited, priority 1998, dated 2001).

Test system: hypoxic-ischemic brain injury
Assay: Hypoxic-ischemic brain injury in adult rats, central GPE (Experiment 3)
Type: in vivo, Wistar rats
Method: The objective of this study was to compare the effects of treatment with GPE to that of vehicle given 2 hours after a hypoxic-ischemic brain injury.
Unilateral hypoxic-ischemic injury was induced in adult 300±10 g) male Wistar rats. The rats underwent unilateral carotid ligation under light halothane anaesthesia. Following one hour recovery they were placed in an incubator at 34C at 85±5% humidity for one hour before injury. They were subjected to 10 min inhalational asphyxia (FiO2 6.0%) and maintained in the incubator for one hour after asphyxia. Two hours after the termination of the inhalation injury, a single stereotaxically controlled lateral cerebroventricular injection of either 3 μGPE (n=15) or phosphate buffered saline alone (n=15) was given. The animals were then maintained for 120 hrs, anaesthetized and the brains fixed in situ for histological assessment.
Surviving and dead neurons were discriminated with the use of a thionin/acid fuchsin staining technique [C. Williams, A. Gunn, C. Mallard, P. Gluckman Ped Res. (1990). A. Brown, J. Brierley, J. Neurol Sci, 16:59-84 (1971)]. The results are shown in FIG. 3; using a scoring technique. […] Similar to our previous study with IGF-1 the incidence of cortical infarction was lower following GPE treatment at 27% compared to the control/vehicle treated rats at 53% (Guan et al J Cereb Blood Flow Metab. 13:609-616 (1993)).
(The incidence of hippocampal damage was reduced following treatment with 3 μg GPE. The asterisk indicates a probability of under <0.05.
For this figure the columns A and B indicate the proportional loss of area (which can be extrapolated to indicate volume using the well-known principles of stereology) between the left and rights sides of the cortex of the brain, for either a control vehicle or 3 μG of GPE. Volumes were measured using computer-aided image analysis techniques. […] Neurones were counted after staining, with the aid of a microscope. […] Thus a single central injection of GPE following an asphyxial injury in the adult rat was associated with a marked improvement in outcome as assessed histologically.

Structure (SMILES): NCC(=O)N1CCC[C@H]1C(=O)N[C@@H](CCC(=O)O)C(=O)O [GPE, gly-pro-glu]
- incidence of hippocampal damage in the ligated hemisphere (3 μg GPE 2 hours after hypoxia, p<0.05 vs vehicle): reduced the incidence of hippocampal damage
- incidence of cortical infarction (3 μg GPE lateral cerebroventricular injection 2 hours after injury, 120 hrs, vehicle 53%): 27%
- number of damaged cells (FIG. 4, cortex area and live hippocampal neurones R/L) (3 μg GPE, single central injection, p 0.04): significant reduction in the number of damaged cells
